Ends that are not written are not given here.
How the values were obtained:
mouse ovary = assay: Localization of polypeptide targeting in mouse ovary (cryosection, laser confocal microscope); format: in vivo; details: ovaries from Example 4, 10 μm cryosections, DAPI; FIG. 3
Text: To further confirm the localization for the targeting of the polypeptide to the ovary, the four groups of mouse ovaries from Example 4 were fixed with 4% PFA, then cryosectioned (10 μm), stained for cell nuclei (DAPI), and observed for fluorescence localization under a laser confocal microscope.

ovary [1] = assay: Mouse ovary-targeting capacity of polypeptide AIE probe (small animal imaging); format: in vivo; details: adult mice, tail vein injection 100 μL/mouse, imaged after 24 h; FIG. 2
Experimental: The polypeptide AIE probe (containing SEQ ID NO: 1) prepared in Example 2, a scrambled polypeptide AIE probe, an AIE empty particle, and PBS were injected intravenously into the tail of the adult mice at 100 μL/mouse. After 24 h, the mice were detected under an imager for small animals.

ovary [2] = assay: Mouse ovary-targeting capacity of polypeptide ICG probe (small animal imaging); format: in vivo; details: adult mice, tail vein injection 100 μL/mouse, imaged after 24 h; FIG. 1
Experimental: A solution of the polypeptide ICG probe (containing SEQ ID NO: 1) prepared in Example 2, an ICG solution (2 mM), and PBS were injected intravenously into the tail of the adult mice at 100 μL/mouse. After 24 h, the mice were detected under an imager for small animals.

oocytes = assay: Oocyte post-ovulation aging model (in vitro aging in M16 medium); format: cell-based, mouse
Experimental: Wild type female mice were intraperitoneally injected with 5 IU PMSG (pregnant mare serum gonadotropin), followed by an intraperitoneal injection of 5 IU hCG (human chorionic gonadotropin) 48 h later for superovulation. Oocytes were collected after 14 h, and cumulus cells were removed using hyaluronidase. Then, the oocytes were randomly divided into the Aging group and the Aging+OCN15 group and cultured in M16 medium for aging. The Control group was aged for 0 h, the Aging group for 12 h, and the Aging+OCN15 group in M16 containing the polypeptide (1 μg/mL) for 12 h.

DHT model mice liver = assay: Hyperandrogen-induced mouse liver lipid droplet accumulation (HE staining); format: in vivo; details: DHT+OCN15 treated group vs DHT model mice; FIG. 9
Experimental: (§1) Wild type female mice at postnatal day 25 (D25) were randomly grouped into a control group (CTRL), a DHT group, and a DHT+OCN15 ([…] is the polypeptide set forth in SEQ ID NO: 1) group, with at least 8 mice in each group. The control group was implanted subcutaneously with an empty pump and gavaged with 200 μL of normal saline every day; the DHT group was implanted subcutaneously with a slow-release pump containing 5 mg of dihydrotestosterone (DHT) powder and gavaged with 200 μL of normal saline every day; and the DHT+OCN15 group was implanted subcutaneously with a slow-release pump containing 5 mg of DHT powder and gavaged with 200 μl of normal saline containing the polypeptide (500 μg/Kg) every day. The modeling time was 60 days.
The method for the induction of the mouse PCOS model by hyperandrogen DHT is described in Example 6. After modeling, the mouse liver was taken, fixed overnight by 4% paraformaldehyde (PFA), dehydrated by alcohol gradient, embedded by paraffin, sectioned (5 μm), and subjected to HE staining for morphological observation.

[3] = test system: DHT-induced hyperandrogenic female mice; assay: Hyperandrogen dihydrotestosterone (DHT)-induced mouse model, reproductive and metabolic symptoms; format: in vivo
Experimental: as §1

For “OCN15-AIE: AIE probe containing SEQ ID NO: 1, polypeptide linked to AIE by click chemistry (DBCO linker) (YLGASVPSPDPLEPT; also: AIE probe attached via DBCO click linker, site not given here)”, the “fluorescence localization in the ovary” value (mouse ovary) was “mainly targets the interstitial cell and the membrane cell in the mouse ovary” and the “fluorescent signal at the ovarian site” value (ovary [1]) was “has a specific signal at the ovarian site”.
In the case of CC1(C)C(/C=C/C=C/C=C/C=C2\N(CCCCS(=O)(=O)[O-])c3ccc4ccccc4c3C2(C)C)=[N+](CCCCS(=O)(=O)[O-])c2ccc3ccccc3c21.[Na+] [ICG, reference compound], the “fluorescent signal at the ovarian site” value (ovary [2]) is reported as “do not show a fluorescent signal at the ovarian site”.
With “OCN15-ICG: ICG probe containing SEQ ID NO: 1, polypeptide linked to ICG by click chemistry (DBCO linker) (YLGASVPSPDPLEPT; also: ICG dye attached via DBCO click linker, site not given here)” the “fluorescent signal at the ovarian site” value (ovary [2]) was “has a specific signal at the ovarian site”.
For “YLGASVPSPDPLEPT [OCN15, mouse metabolite, ovary-targeting polypeptide]”, the “oocyte fragmentation and degeneration” value (oocytes; 1 μg/mL polypeptide in M16, 12 h aging, FIG. 7A) was “ameliorate the fragmentation and degeneration caused by in vitro aging of oocytes”, the zona pellucida sclerosis (oocytes; 1 μg/mL polypeptide in M16, 12 h aging, FIG. 7B) was “ameliorate the zona pellucida sclerosis caused by in vitro aging of oocytes” and the “in vitro fertilization rate” value (oocytes; 1 μg/mL polypeptide in M16, 12 h in vitro aging, FIG. 7C) was “improve the low fertilization rate caused by in vitro aging of oocytes”. For the same molecule, the “liver lipid droplet accumulation” value (DHT model mice liver) was “alleviated”, the anogenital distance ([3]; 500 μg/Kg gavage daily with DHT pump, 60 days after modeling, FIG. 4C) was “significantly improved” and the “number of estrous days in ten days” value ([3]; 500 μg/Kg gavage daily with DHT pump, 60 days modeling, normal above 4 days, hyperandrogenic around 2 days, FIG. 4B) was about 3 days. For the same molecule, the ovarian polycystic changes ([3]; 500 μg/Kg gavage daily with DHT pump, 60 days, FIG. 4A) was “reduce the polycystic changes”, the body weight ([3]; 500 μg/Kg gavage daily with DHT pump, FIG. 5A) was “alleviate the increase in body weight” and the body weight gain ([3]; 500 μg/Kg gavage daily with DHT pump, FIG. 5B) was “alleviate the increase in body weight and body weight gain caused by DHT to some extent”. For the same molecule, the “weight of gonadal fat” value ([3]; 500 μg/Kg gavage daily with DHT pump, FIG. 5C) was “reducing the weight of mouse gonadal fat”, the lean body mass ([3]; 500 μg/Kg gavage daily with DHT pump, FIG. 5D) was “increased lean body mass” and the “blood glucose level after oral administration of glucose” value ([3]; at 30 min after oral glucose, 60 days after modeling, FIG. 4D) was “significant decrease in blood glucose level compared with the group with DHT alone”. For the same molecule, the “androgen receptor AR expression in the epidermal layer of the neck and back skin” value ([3]; day 60 of modeling, immunofluorescence, FIG. 6B) was “significantly reduce DHT-caused significant increase of androgen receptor AR expression” and the “hair loss on the neck and back skin” value ([3]; day 60 of modeling, FIG. 6A) was “can significantly improve the phenomenon”.
